Results on one molecule are retold here after US11826429B2, “Pharmaceutical composition comprising brinzolamide” (SENTISS PHARMA PRIVATE LIMITED, priority 2014, dated 2023).

SMILES strings stand for the structures. In brackets after ≈: the same amount, converted by molar mass.

For data set [1] the following is noted: pH 6.25; cited from earlier work.
Data set [2] can be described thus: Solubility studies (supernatant filtered through 0.45 syringe filter and analysed). In kind it is physicochemical. Conditions: for Solubility % w/v, No Further addition to the ingredients of Column 2: autoclaved 121° C./30 min, cooled; for Solubility % w/v, Polysorbate 80 (1%) in addition to the composition of Column 2: plus Polysorbate 80 (1%). As to the method: Purified water was taken in Schott bottle. Brinzolamide was added with continuous stirring. After 30 min its pH was adjusted to 6. It was stirred for 24 hours. After which, the supernatant was filtered with 0.45 µm syringe filter and then its solubility was determined.
Purified water was taken in Schott bottle. Brinzolamide was added with continuous stirring. After 30 min its pH was adjusted to 6 and was autoclaved at 121° C./30 min. After autoclaving the sample was cooled to room temperature. It was stirred for 24 hours. After which, the supernatant was filtered with 0.45 µm syringe filter and then its solubility was determined.
Purified water is taken in Schott bottle. Soluplus® is added to it while stirring for 10-15 min. Polysorbate 80 is added to it while stirring for 10-20 min. After it has dissolved completely Brinzolamide is added with continuous stirring. After 30 min pH is checked and adjusted to 6 with 0.1 N NaOH. It is autoclaved at 121° C./30 min. After autoclaving the formulation is cooled to room temperature with stirring.
In order to determine the solubility the sample was centrifuged at 3500 rpm for 5 min followed by filtration through 0.45 µm syringe filter and analysis.

`CCN[C@H]1CN(CCCOC)S(=O)(=O)c2sc(S(N)(=O)=O)cc21` [brinzolamide, (R)-(+)-4-ethylamino-2-(3-methoxypropyl)-3,4-dihydro-2H-thieno[3,2-e]-1,2-thiazine-6-sulfonamide-1,1-dioxide]: the “Solubility as per literature” value in data set [1] is on record as 0.059 % w/v. The “Solubility when API is autoclaved and cooled” value in data set [2] (pH 6.0) was found to be 0.082%. Moreover, the “Solubility % w/v, No Further addition to the ingredients of Column 2” value in data set [2] (pH 6) came to 0.085 % w/v; in data set [2] (pH 6, listed as Autoclaved API), 0.0822 % w/v. Further, the “Solubility % w/v, PEG 400 (5%) in addition to the composition of Column 2” value in data set [2] (pH 6, autoclaved, plus PEG 400 (5%)) is 0.0668 % w/v. Besides, the “Solubility % w/v, Polysorbate 80 (1%) in addition to the composition of Column 2” value in data set [2] (pH 6, autoclaved) came out at 0.2 % w/v; in data set [2] (pH 6, autoclaved, listed as Autoclaved API) it was 0.2089 % w/v. Moreover, the solubility thermodynamic at 24 h in data set [2] (purified water, pH adjusted to 6, aqueous buffer, thermodynamic from solid, pH 6.0, not autoclaved, stirred 24 hours, read-out: Solubility determined in the lab) is 545 µg/mL (≈ 1420 µM).
